# Reference: US9314446B2, “Sustained releasing pharmaceutical composition” (priority 2013, dated 2016)
# Assay: In-vitro release of diclofenac (dialysis bag, PBS, absorbance 300 nm)
# Type: physicochemical
# Conditions: 1 mg/ml, PBS 37° C.
# Protocol: In-vitro experiment on agent release of hydrogel is designed to simulate its in-vivo effect. The 500 μg/ml latanoprost-loaded solution were added to the transwell (100 μl/well) mounted on 24-well plates, and 1.5 ml PBS was added in each well and then incubated at 37° C. The 1.5 ml PBS was collected and another 1.5 ml PBS was then replenished at each time (Days 1, 7, 14 and 28). The amount of latanoprost was analyzed by a LC-MS/MS system equipped with an electrospray ionization source. The LC-MS/MS consisted of a Sciex API 3000 tandem mass spectrometer and Agilent 1100 series LC system. Separation of latanoprost was achieved by using a Phenomenex Luna C18 column (particle size 5 um, 50 mm×4.6 mm i.d.). The mobile phase consisted of latanoprost was (A) 0.1% (v/v) formic acid and (B) acetonitrile containing 0.1% formic acid (A:B=7:3, v/v) and delivered at 0.3 ml per minute. The mass spectrometer was operated in positive mode which used multiple reaction monitoring. The precursor to produce ion transition of m/z 374.2→195.2 was monitored. In another experiment, the dialysis bags with molecular weight cut-off of 1 kD were used to retain the diclofenac-loaded hydrogel and allow the released diclofenac to permeate into the release medium (PBS). Briefly, 800 μl diclofenac-loaded hydrogel (1 mg/ml) or diclofenac only (1 mg/ml) was added to a dialysis bag. The sample-loaded dialysis bag was immersed in 30 ml of PBS at 100 rpm and 37° C. At fixed time intervals, the release medium was collected and replaced with an equal amount of PBS. According to the absorption curve of diclofenac, the diclofenac content of the each sample was analyzed by Tecan's Infinite® M 1000 spectrophotometer at the wavelength of 300 nm. […] The percentage of cumulative release at 1, 7, 14 and 28 days were 1.34±0.33, 26.80±5.40, 45.03±2.55 and 67.72±4.25%, respectively. Additives in hydrogel affect its composition, structure and may also change its drug releasing characteristics. […] The percentage of cumulative release of 1 mg/ml diclofenac only group at 5, 18, 24, 48, 75 and 140 hours was 106.08±10.48, 99.34±6.57, 106.62±13.76, 102.28±7.40, 105.75±5.76 and 112.14±7.05%.
compound,measurement,setting,value
O=C(O)Cc1ccccc1Nc1c(Cl)cccc1Cl [diclofenac],cumulative release of diclofenac,5 hours,106.08±10.48%
same,cumulative release of diclofenac,18 hours,99.34±6.57%
same,cumulative release of diclofenac,24 hours,106.62±13.76%
same,cumulative release of diclofenac,48 hours,102.28±7.40%
same,cumulative release of diclofenac,75 hours,105.75±5.76%
same,cumulative release of diclofenac,140 hours,112.14±7.05%
